# Data: PubChem BioAssay (NCI)
# Values joined by “and” are separate entries in the source; they are usually repeats but may differ in a detail not shown here. Identical values can stand only once.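 In this assay, cells in 96-well plates receive the compound at five concentrations for 48 hours. Endpoints are linearly interpolated between the surrounding concentrations. GI50 marks 50% less growth. TGI: total growth inhibition.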
# System: HT29 colon
# Assay: growth of human tumour cells (NCI), 48 h
SMILES,TGI,GI50
O=C1CCC(NC(=O)c2ccccc2)C(=O)N1 (stereo not drawn),> 100 µM,
CC1(C)N=C(N)N=C(N)N1c1ccc(CCCCc2ccc(S(=O)(=O)F)cc2Cl)c(Cl)c1,298 µM,
CN(C)c1ccc(/C=C2\C[N+](C)(C)C/C(=C\c3ccc(N(C)C)cc3)C2=O)cc1,24 µM,
NS(=O)(=O)c1ccc(-n2nc(-c3ccc(Br)cc3)ccc2=O)cc1,> 10 µM,> 10 µM
Cn1cc(C2=C(c3ccc(OC[C@@H](O)CO)cc3)C(=O)NC2=O)c2ccccc21,> 25 µM,> 25 µM
CCOC(=O)c1cc(-c2ccc([N+](=O)[O-])cc2)n(-c2ccc(C(=O)O)c(O)c2)c1C,13.3 µM,3.23 µM
N#Cc1cnn2ccn(C3OC(COC(=O)c4ccccc4)C(OC(=O)c4ccccc4)C3OC(=O)c3ccccc3)c12 (stereo not drawn),> 21.5 µM,
CCOc1ccc2nc(NC(=O)/C(CC(=O)CC(C3=C(O)c4ccccc4CC3=O)c3ccccc3)=N\O)sc2c1 (stereo not drawn),> 100 µM,
CCN1CCN(c2nc(NCCNc3ccnc4cc(Cl)ccc34)c3ccccc3n2)CC1,7.47 µM,0.793 µM
CN(C)c1ccc2c(c1)oc(=O)c1ccccc12,26.1 µM,
CC1=C[C@@H]2Cc3occc3C(C)(C)[C@@H]2CC1,30.3 µM,
CC(=O)c1ccc(N(/C=C/C(=O)C(F)(F)F)CC(=O)c2ccc(Cl)c(Cl)c2)cc1,> 100 µM,24.4 µM
O=c1c(Cl)c(Cl)cnn1-c1ccccc1,3.38 µM and 8.06 µM,1.75 µM and 3.77 µM
COc1cccc(-c2nn(-c3ccccc3)cc2-c2ccnc(NCCCNS(=O)(=O)c3cccc(F)c3)c2)c1,18.8 µM,2.87 µM
NC1(CCCCCCCCCCC(=O)O)CNCCNCCNCCNC1,> 100 µM,
C#CC(C)(C)Oc1cc(O)c2c(=O)c3ccccc3n(C)c2c1,> 100 µM,
CC[n+]1ccc2c(c1)C(=O)c1nccc3c1c-2nc1ccccc13,23.1 µM,4.15 µM

# System: A549 NSCLC
# Assay: growth of human tumour cells (NCI), 48 h
SMILES,GI50 [µM],TGI [µM]
N#Cc1nc(-c2ccc(F)cc2)oc1S(=O)(=O)N1CCOCC1,18.2,38.7
Cc1c(Cl)cccc1Nc1ncccc1C(=O)O,> 100,> 100
COc1cc2c(c(O)c1C)C(=O)C(Cl)=CC2=O,,55.8
Fc1ccc(-c2nn(-c3ccccc3)cc2-c2nc3ccccc3o2)cc1,3.46,16.4
CN=C1NC(=O)/C(=C/c2ccc3ncccc3c2)S1,5.13,> 25
CN(C)CCNC(=O)c1cccc2nc3c(Cl)cccc3nc12,,> 35.6
COc1ccc(CN2CCCC(C(=O)c3ccc(C(F)(F)F)cc3)C2)c(O)c1 (stereo not drawn),36.4,> 100
O=S(=O)(O)C(O)/C=C/c1ccccc1 (stereo not drawn),,> 100
OCCNCO,,> 100
CC1=C2[C@@H](CC1)[C@]1(C)O[C@@](C(C)C)(C[C@H]1OC(=O)[C@H](C)O)[C@H]2OC(=O)/C=C/c1ccccc1,12.5,28.9
O=C(Cc1ccc(/C=C/C(=O)c2ncc[nH]2)cc1)Nc1ccc(Cl)cc1,6.9,> 25
Cc1c(C(=O)/C=C/c2cccc3ccccc23)[n+](=O)c2ccccc2n1[O-],,35
COC(=O)c1c2c(c(C)[n+]([O-])c1C)C(=O)C=CC2=O,3.12,11.6
C[C@@H]1Cc2c([nH]c3ccccc23)[C@@H](c2c(F)cc(/C=C/C(=O)O)cc2F)N1CC(C)(C)F,11.6,26.6
O=C1CCC(NC(=O)c2ccccc2)C(=O)N1 (stereo not drawn),,> 100
CC1(C)N=C(N)N=C(N)N1c1ccc(CCCCc2ccc(S(=O)(=O)F)cc2Cl)c(Cl)c1,,200
CN(C)c1ccc(/C=C2\C[N+](C)(C)C/C(=C\c3ccc(N(C)C)cc3)C2=O)cc1,,> 100
NS(=O)(=O)c1ccc(-n2nc(-c3ccc(Br)cc3)ccc2=O)cc1,> 10,> 10
Cn1cc(C2=C(c3ccc(OC[C@@H](O)CO)cc3)C(=O)NC2=O)c2ccccc21,> 25,> 25
CCOC(=O)c1cc(-c2ccc([N+](=O)[O-])cc2)n(-c2ccc(C(=O)O)c(O)c2)c1C,3.38,12.7
N#Cc1cnn2ccn(C3OC(COC(=O)c4ccccc4)C(OC(=O)c4ccccc4)C3OC(=O)c3ccccc3)c12 (stereo not drawn),,> 21.5
